The values below come from patent publication US10988433B2, “Cyclohexyl GPR40 agonists for the treatment of type II diabetes” (Janssen Pharmaceutica NV, priority 2016, dated 2021).

One assay deals with T1, rat GPR40 (Rattus norvegicus, UniProt Q8K3T4).
T1 construct: expressed in transfected cells
The experiment in a line: GPR40 calcium flux assay, HEK293 cells stably expressing rat GPR40. Type of assay: cell-based. Particulars: transfected HEK293 cells stably expressing rat GPR40, Fluo 8 dye, read-out: rGPR40 Ca2+ Assay EC50. The procedure:
(§1) Compounds were tested in a calcium flux assay using transfected HEK293 cells stably expressing either human GPR40 or rat GPR40. Human GPR40 expressing cells were cultured in DMEM-High Glucose media supplemented with 10% fetal bovine serum, 1×L-Glutamine, 1×Penicillin/Streptomycin and 500 μg/mL G418. Rat GPR40 expressing cells were cultured in DMEM-High Glucose media supplemented with 10% fetal bovine serum and 1 μg/mL puromycin. Cells were plated into poly-D-lysine coated 384-well plates and cultured overnight in a 37° C. humidified tissue culture incubator under 5% CO2/[…] atmosphere. On the day of the experiment, the culture media was replaced with assay buffer (HBSS, 20 mM HEPES, 0.1% BSA) and the cells incubated at 37° C. for 1 h. Calcium-sensitive fluorescent dye (Fluo 8 No-Wash Calcium Dye, ABD Bioquest) was then added and the cells incubated for another 30 min at 37° C. followed by 15 min at room temperature while protected from the light. The cell plate and a plate of diluted compounds of Formula (I) were loaded into a fluorescent plate reader that added compounds onto the cells while measuring the fluorescence intensity of each well. The plate reader recorded fluorescence intensity at 1 second intervals for 8 min and provided the data for analysis in an Excel format. EC50 values were calculated using Prism (GraphPad) software.
(Calcium assays in cells follow changes in intracellular calcium, usually with a dye or a luminescent sensor.)

Another assay has as its target T2, human GPR40 (Homo sapiens, UniProt O14842).
T2 construct: expressed in transfected cells
As to the kind of experiment: GPR40 calcium flux assay, HEK293 cells stably expressing human GPR40. Type of assay: cell-based. Particulars: transfected HEK293 cells stably expressing human GPR40, Fluo 8 dye, read-out: hGPR40 Ca2+ Assay EC50. The procedure: as §1

T1 sequence (Q8K3T4 whole entry): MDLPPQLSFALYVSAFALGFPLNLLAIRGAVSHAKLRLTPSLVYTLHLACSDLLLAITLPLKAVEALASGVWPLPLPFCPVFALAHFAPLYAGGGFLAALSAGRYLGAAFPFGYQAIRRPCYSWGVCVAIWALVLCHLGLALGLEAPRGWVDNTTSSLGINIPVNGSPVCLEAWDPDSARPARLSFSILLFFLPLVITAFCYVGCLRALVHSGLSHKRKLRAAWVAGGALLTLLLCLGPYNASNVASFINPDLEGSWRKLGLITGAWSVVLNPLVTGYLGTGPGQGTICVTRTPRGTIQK
T2 sequence (O14842 whole entry): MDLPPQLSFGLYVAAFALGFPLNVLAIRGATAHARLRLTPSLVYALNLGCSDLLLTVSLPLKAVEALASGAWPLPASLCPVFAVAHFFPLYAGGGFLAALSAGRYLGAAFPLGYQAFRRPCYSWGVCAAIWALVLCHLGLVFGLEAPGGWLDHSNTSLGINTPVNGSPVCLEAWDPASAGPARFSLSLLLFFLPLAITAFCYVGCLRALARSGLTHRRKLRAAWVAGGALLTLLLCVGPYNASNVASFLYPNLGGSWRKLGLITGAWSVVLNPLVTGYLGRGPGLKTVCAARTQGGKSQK

What is called EC50 is the concentration giving half of the maximal effect. `CCOc1cc([C@H]2CC[C@@H](COc3cc([C@@H](CC(=O)O)C4CC4)ccn3)CC2)c(F)cn1` [Cpd 48, (S)-3-cyclopropyl-3-(2-(((1s,4R)-4-(2-ethoxy-5-fluoropyridin-4-yl)cyclohexyl)methoxy)pyridin-4-yl)propanoic acid]: the half-maximal effective concentration (EC50) came to 676 nM on rat GPR40 and 212 nM at human GPR40.
The matching figures for `COc1ccc(C)c(C2CCC(COc3cccc([C@H](C4CC4)C(C)(F)C(=O)O)c3)CC2)c1` (stereo partly drawn) [Cpd 70, (3S)-3-Cyclopropyl-2-fluoro-3-(3-((4-(5-methoxy-2-methylphenyl)cyclohexyl)methoxy)phenyl)-2-methylpropanoic acid]: 0.15 nM and 0.16 nM.
On to `COc1ccc(F)c([C@H]2CC[C@H](COc3cncc(C(CC(=O)O)C4CC4)c3)CC2)c1` (stereo partly drawn) [Cpd 21, 3-Cyclopropyl-3-(5-(((1r,4r)-4-(2-fluoro-5-methoxyphenyl)cyclohexyl)methoxy)pyridin-3-yl)propanoic acid], for which the half-maximal effective concentration (EC50) on rat GPR40 stood at 35.3 nM; on human GPR40, 12 nM.
The matching figures for `COc1ccc(F)c([C@]2(F)CC[C@@H](COc3cccc([C@@H](CC(=O)O)C4CC4)c3)CC2)c1` [Cpd 20, (S)-3-Cyclopropyl-3-(3-(((1s,4R)-4-fluoro-4-(2-fluoro-5-methoxyphenyl)cyclohexyl)methoxy)phenyl)propanoic acid]: 40.7 nM and 9.9 nM.
Regarding `COc1cncc(C2CCC(COc3cc([C@@H](CC(=O)O)C4CC4)ccn3)CC2)n1` (stereo partly drawn) [Cpd 46, (S)-3-Cyclopropyl-3-(2-((4-(6-methoxypyrazin-2-yl)cyclohexyl)methoxy)pyridin-4-yl)propanoic acid], the EC50 at rat GPR40 is above 10000 nM; on human GPR40, 5800 nM.
As for `COc1cc([C@H]2CC[C@H](COc3ccnc(C(CC(=O)O)C4CC4)c3)CC2)c(F)cn1` (stereo partly drawn) [Cpd 31, 3-Cyclopropyl-3-(4-(((1r,4r)-4-(5-fluoro-2-methoxypyridin-4-yl)cyclohexyl)methoxy)pyridin-2-yl)propanoic acid], the values for the EC50 at rat GPR40 and at human GPR40 were 54.2 nM and 26.1 nM, respectively.
With `COc1ccc(F)c([C@]2(O)CC[C@H](COc3cccc([C@@H](CC(=O)O)C4CC4)c3)CC2)c1` [Cpd 6, (S)-3-Cyclopropyl-3-(3-(((1r,4S)-4-(2-fluoro-5-methoxyphenyl)-4-hydroxycyclohexyl)methoxy)phenyl)propanoic acid], the EC50 at human GPR40 was 377 nM.
As for `COc1ccc(F)c([C@H]2CC[C@H](CCc3cccc([C@H](C4CC4)C(C)(F)C(=O)O)c3)CC2)c1` (stereo partly drawn) [Cpd 73, (3S)-3-Cyclopropyl-2-fluoro-3-(3-(2-((1r,4R)-4-(2-fluoro-5-methoxyphenyl)cyclohexyl)ethyl)phenyl)-2-methylpropanoic acid], the figures for the EC50 at rat GPR40 and at human GPR40 were 0.46 nM and 0.22 nM, respectively.
For `COc1cc([C@H]2CC[C@H](COc3cccc(C(CC(=O)O)C4CC4)n3)CC2)c(F)cn1` (stereo partly drawn) [Cpd 15, 3-Cyclopropyl-3-(6-(((1r,4r)-4-(5-fluoro-2-methoxypyridin-4-yl)cyclohexyl)methoxy)pyridin-2-yl)propanoic acid], on human GPR40, the EC50 worked out at 138 nM.
`CCOC(CC(=O)O)c1cccc(OC[C@H]2CC[C@@H](c3cc(OC)ccc3F)CC2)c1` (stereo partly drawn) [Cpd 50, 3-Ethoxy-3-(3-(((1s,4s)-4-(2-fluoro-5-methoxyphenyl)cyclohexyl)methoxy)phenyl) propanoic acid]: the concentration for a half-maximal effect (EC50) on rat GPR40 is 656 nM; on human GPR40, 500 nM.
Regarding `COc1ccc(F)c([C@H]2CC[C@H](COc3cccc([C@H](C4CC4)C(C)C(=O)O)c3)CC2)c1` (single isomer, unassigned) [Cpd 51], the EC50 at rat GPR40 was 4.9 nM; at human GPR40, 2.2 nM.
As for `COc1ccc(F)c([C@H]2CC[C@H](/C=C/c3cccc([C@H](C4CC4)C(C)(F)C(=O)O)c3)CC2)c1` (stereo partly drawn) [Cpd 72, (3S)-3-Cyclopropyl-2-fluoro-3-(3-((E)-2-((1r,4S)-4-(2-fluoro-5-methoxyphenyl)cyclohexyl)vinyl)phenyl)-2-methylpropanoic acid], the concentration giving a half-maximal response (EC50) came to 2.48 nM at rat GPR40 and 1.88 nM at human GPR40.
Taken in the same sequence, the figures for `COc1cc(C2CCC(COc3cccc([C@@H](CC(=O)O)C4CC4)c3)C(CC(C)C)C2)c(F)cn1` (stereo partly drawn) [Cpd 30, (3S)-3-Cyclopropyl-3-(3-((4-(5-fluoro-2-methoxypyridin-4-yl)-2-isobutylcyclohexyl)methoxy)phenyl)propanoic acid] were 29.4 nM and 2.1 nM.
With `COc1ccc(F)c([C@H]2CC[C@H](CNc3cccc([C@@H](CC(=O)O)C4CC4)c3)CC2)c1` [Cpd 40, (S)-3-Cyclopropyl-3-(3-((((1r,4 S)-4-(2-fluoro-5-methoxyphenyl)cyclohexyl)methyl)amino)phenyl)propanoic acid], the half-maximal effective concentration (EC50) on rat GPR40 was 21 nM; at human GPR40, 22 nM.
As for `COc1cc([C@H]2CC[C@H](COc3cc([C@H](C4CC4)C(C)(F)C(=O)O)ccn3)CC2)c(F)cn1` (stereo partly drawn) [Cpd 80, (3S)-3-Cyclopropyl-2-fluoro-3-(2-(((1r,4S)-4-(5-fluoro-2-methoxypyridin-4-yl)cyclohexyl)methoxy)pyridin-4-yl)-2-methylpropanoic acid], the concentration giving a half-maximal response (EC50) was found to be 220 nM on rat GPR40 and 79 nM on human GPR40.
As to `COc1cc([C@H]2CC[C@H](COc3cc(C(CC(=O)O)C4CC4)ccn3)CC2)c(F)cn1` (stereo partly drawn) [Cpd 8, 3-Cyclopropyl-3-(2-(((1r,4r)-4-(5-fluoro-2-methoxypyridin-4-yl)cyclohexyl)methoxy)pyridin-4-yl)propanoic acid], the half-maximal effective concentration (EC50) was found to be 1.4 nM at rat GPR40 and 0.5 nM at human GPR40.
`COc1cc([C@H]2CC[C@H](COc3cccc([C@H](C4CC4)C(C)(F)C(=O)O)c3)CC2)c(F)cn1` (stereo partly drawn) [Cpd 61]: the results for the EC50 at rat GPR40 and on human GPR40 were 0.53 nM and 0.25 nM, respectively.
Taken in the same sequence, the figures for `CC(F)(C(=O)O)[C@H](c1cccc(OCC2CCC(c3cc(F)ncc3F)CC2)c1)C1CC1` (mixture of isomers) [Cpd 67, (3S)-3-Cyclopropyl-3-(3-((4-(2,5-difluoropyridin-4-yl)cyclohexyl)methoxy)phenyl)-2-fluoro-2-methylpropanoic acid] were 12 nM and 1.7 nM.
Turning to `COc1ccc(F)c([C@H]2CC[C@@H](COc3cccc(C(CC(=O)O)C4CC4)n3)CC2)c1` (stereo partly drawn) [Cpd 14, 3-Cyclopropyl-3-(6-(((1 s,4s)-4-(2-fluoro-5-methoxyphenyl)cyclohexyl)methoxy)pyridin-2-yl)propanoic acid], the EC50 on human GPR40 came out at 1500 nM.
Turning to `COc1cc([C@H]2CC[C@@H](COc3cncc(C(CC(=O)O)C4CC4)c3)CC2)c(F)cn1` (stereo partly drawn) [Cpd 23, 3-Cyclopropyl-3-(5-(((1s,4s)-4-(5-fluoro-2-methoxypyridin-4-yl)cyclohexyl)methoxy)pyridin-3-yl)propanoic acid], the EC50 at human GPR40 turned out to be 307 nM.
Turning to `CCc1ccc(Cl)c(C2CCC(COc3cccc([C@H](C4CC4)C(C)(F)C(=O)O)c3)CC2)c1` (stereo partly drawn) [Cpd 65, (3S)-3-(3-((4-(2-Chloro-5-ethylphenyl)cyclohexyl)methoxy)phenyl)-3-cyclopropyl-2-fluoro-2-methylpropanoic acid], the EC50 was found to be 1.75 nM at rat GPR40 and 0.59 nM at human GPR40.
As for `COc1cc([C@H]2CC[C@H](COc3cc([C@@H](Cc4nnn[nH]4)C4CC4)ccn3)CC2)c(F)cn1` [Cpd 43, 4-((1S,4r)-4-(((4-((S)-1-Cyclopropyl-2-(1H-tetrazol-5-yl)ethyl)pyridin-2-yl)oxy)methyl)cyclohexyl)-5-fluoro-2-methoxypyridine], the EC50 is 464 nM on rat GPR40 and 281 nM at human GPR40.
Consider `COc1ccc(F)c([C@H]2CC[C@H](/C=C/c3cccc([C@@H](CC(=O)O)C4CC4)c3)CC2)c1` [Cpd 28, (S)-3-cyclopropyl-3-(3-((E)-2-((1r,4S)-4-(2-fluoro-5-methoxyphenyl)cyclohexyl)vinyl)phenyl)propanoic acid], for which the figures for the EC50 on rat GPR40 and on human GPR40 were 6.1 nM and 2.6 nM, respectively.
Regarding `COc1ccc(F)c([C@H]2CC[C@H](CCc3cccc([C@@H](CC(=O)O)C4CC4)c3)CC2)c1` [Cpd 36, (S)-3-Cyclopropyl-3-(3-(2-((1r,4R)-4-(2-fluoro-5-methoxyphenyl)cyclohexyl)ethyl)phenyl) propanoic acid], the EC50 on rat GPR40 stood at 9.2 nM; on human GPR40 it was 1.7 nM.
Consider `COc1cc([C@]2(OC)CC[C@@H](COc3cc([C@@H](CC(=O)O)C4CC4)ccn3)CC2)c(F)cn1` [Cpd 44, (S)-3-cyclopropyl-3-(2-(((1s,4R)-4-(5-fluoro-2-methoxypyridin-4-yl)-4-methoxycyclohexyl)methoxy)pyridin-4-yl) propanoic acid], for which the figures for the EC50 at rat GPR40 and at human GPR40 were 29 nM and 9.9 nM, respectively.
In the case of `COc1ccc(F)c([C@H]2CC[C@@H](COc3cncc(C(CC(=O)O)C4CC4)c3)CC2)c1` (stereo partly drawn) [Cpd 18, 3-Cyclopropyl-3-(5-(((1s,4s)-4-(2-fluoro-5-methoxyphenyl)cyclohexyl)methoxy)pyridin-3-yl)propanoic acid], the half-maximal effective concentration (EC50) at human GPR40 came out at 226 nM.
Still for that read-out and setting: next, `COc1cc([C@H]2CC[C@@H](COc3cccc(C(CC(=O)O)C4CC4)n3)CC2)c(F)cn1` (stereo partly drawn) [Cpd 16, 3-Cyclopropyl-3-(6-(((1s,4s)-4-(5-fluoro-2-methoxypyridin-4-yl)cyclohexyl)methoxy)pyridin-2-yl)propanoic acid]: 3080 nM.
